# Target: T1, Orexin receptor type 2 (Homo sapiens, UniProt O43614)
# T1 sequence (O43614 whole entry): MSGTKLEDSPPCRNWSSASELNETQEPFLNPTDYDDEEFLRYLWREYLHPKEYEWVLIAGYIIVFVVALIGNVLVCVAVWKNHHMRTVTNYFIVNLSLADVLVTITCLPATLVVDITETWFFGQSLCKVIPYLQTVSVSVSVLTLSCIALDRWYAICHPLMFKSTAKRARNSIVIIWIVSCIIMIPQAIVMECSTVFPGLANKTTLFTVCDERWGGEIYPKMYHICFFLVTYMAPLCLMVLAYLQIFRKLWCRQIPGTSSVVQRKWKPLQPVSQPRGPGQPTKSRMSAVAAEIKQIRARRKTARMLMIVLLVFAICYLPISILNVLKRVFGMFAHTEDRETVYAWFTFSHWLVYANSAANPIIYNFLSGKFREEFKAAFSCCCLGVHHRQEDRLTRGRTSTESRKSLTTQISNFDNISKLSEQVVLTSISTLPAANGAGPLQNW
# Assay: Agonist activity against human orexin 2 receptor; EC50; nM
# Assay type: functional
row,EC50,Compound
1,0.2 nM,CC[C@H](C)[C@H](NC(=O)[C@H](CC(C)C)NC(=O)[C@@H](NC(=O)[C@@H](N)CCSC)[C@@H](C)O)C(=O)NCC(=O)N[C@@H](C)C(=O)N[C@@H](C)C(=O)N[C@@H](Cc1c[nH]cn1)C(=O)N[C@@H](CC(N)=O)C(=O)NCC(=O)N[C@@H](CO)C(=O)N[C@@H](C)C(=O)N[C@@H](CCC(N)=O)C(=O)N[C@@H](CC(C)C)C(=O)N[C@@H](CC(C)C)C(=O)N[C@@H](CCCN=C(N)N)C(=O)N[C@@H](CCC(N)=O)C(=O)N[C@@H](CC(C)C)C(=O)N[C@@H](CCCN=C(N)N)C(=O)NCC(=O)N[C@@H](CCC(N)=O)C(=O)N[C@@H](CC(C)C)C(=O)N[C@H](C)C(=O)N1CCC[C@H]1C(=O)N1CCC[C@H]1C(=O)NCC(=O)N[C@@H](CO)C(=O)N[C@@H](CCCN=C(N)N)C(N)=O
2,0.41 nM,CC[C@H](C)[C@H](NC(=O)[C@H](CC(C)C)NC(=O)[C@@H](NC(=O)[C@@H](N)CCSC)[C@@H](C)O)C(=O)NCC(=O)N[C@@H](C)C(=O)N[C@@H](C)C(=O)N[C@@H](Cc1c[nH]cn1)C(=O)N[C@@H](CC(N)=O)C(=O)NCC(=O)N[C@@H](CO)C(=O)N[C@@H](C)C(=O)N[C@H](CCC(N)=O)C(=O)N[C@@H](CC(C)C)C(=O)N[C@@H](CC(C)C)C(=O)N[C@@H](CCCN=C(N)N)C(=O)N[C@@H](CCC(N)=O)C(=O)N[C@@H](CC(C)C)C(=O)N[C@@H](CCCN=C(N)N)C(=O)NCC(=O)N[C@@H](CCC(N)=O)C(=O)N[C@@H](CC(C)C)C(=O)NCC(=O)N1CCC[C@H]1C(=O)N1CCC[C@H]1C(=O)NCC(=O)N[C@@H](CO)C(=O)N[C@@H](CCCN=C(N)N)C(N)=O
3,0.066 nM,CC[C@H](C)[C@H](NC(=O)[C@H](CC(C)C)NC(=O)[C@@H](NC(=O)[C@@H](N)CCSC)[C@@H](C)O)C(=O)NCC(=O)N[C@@H](C)C(=O)N[C@@H](C)C(=O)N[C@@H](Cc1cnc[nH]1)C(=O)N[C@@H](CC(N)=O)C(=O)NCC(=O)N[C@@H](CO)C(=O)N[C@@H](C)C(=O)N[C@@H](CCC(N)=O)C(=O)N[C@@H](CC(C)C)C(=O)N[C@@H](CC(C)C)C(=O)N[C@@H](CCCN=C(N)N)C(=O)N[C@@H](CCC(N)=O)C(=O)N[C@@H](C)C(=O)N[C@@H](CCCN=C(N)N)C(=O)NCC(=O)N[C@@H](CCC(N)=O)C(=O)N[C@@H](CC(C)C)C(=O)NCC(=O)N1CCC[C@H]1C(=O)N1CCC[C@H]1C(=O)NCC(=O)N[C@@H](CO)C(=O)N[C@@H](CCCN=C(N)N)C(N)=O
4,0.12 nM,CC[C@H](C)[C@H](NC(=O)[C@H](CC(C)C)NC(=O)[C@@H](NC(=O)[C@@H](N)CCSC)[C@@H](C)O)C(=O)NCC(=O)N[C@@H](C)C(=O)N[C@@H](C)C(=O)N[C@@H](Cc1c[nH]cn1)C(=O)N[C@@H](CC(N)=O)C(=O)NCC(=O)N[C@@H](CO)C(=O)N[C@@H](C)C(=O)N[C@@H](CCC(N)=O)C(=O)N[C@@H](CC(C)C)C(=O)N[C@@H](CC(C)C)C(=O)N[C@@H](CCCN=C(N)N)C(=O)N[C@@H](CCC(N)=O)C(=O)N[C@@H](CC(C)C)C(=O)N[C@@H](CCCN=C(N)N)C(=O)NCC(=O)N[C@@H](CCC(N)=O)C(=O)N[C@@H](CC(C)C)C(=O)N[C@@H](C)C(=O)N1CCC[C@H]1C(=O)N1CCC[C@H]1C(=O)NCC(=O)N[C@@H](CO)C(=O)N[C@@H](CCCN=C(N)N)C(N)=O
5,> 290 nM,CC[C@H](C)[C@H](NC(=O)[C@H](CC(C)C)NC(=O)[C@@H](NC(=O)[C@H](N)CCSC)[C@@H](C)O)C(=O)NCC(=O)N[C@@H](C)C(=O)N[C@@H](C)C(=O)N[C@@H](Cc1c[nH]cn1)C(=O)N[C@@H](CC(N)=O)C(=O)NCC(=O)N[C@@H](CO)C(=O)N[C@@H](C)C(=O)N[C@@H](CCC(N)=O)C(=O)N[C@@H](CC(C)C)C(=O)N[C@@H](CC(C)C)C(=O)N[C@@H](CCCN=C(N)N)C(=O)N[C@@H](CCC(N)=O)C(=O)N[C@@H](CC(C)C)C(=O)N[C@@H](CCCN=C(N)N)C(=O)NCC(=O)N[C@@H](CCC(N)=O)C(=O)N[C@@H](CC(C)C)C(=O)NCC(=O)N1CCC[C@H]1C(=O)N1CCC[C@H]1C(=O)NCC(=O)N[C@@H](CO)C(=O)N[C@@H](CCCN=C(N)N)C(N)=O
6,0.18 nM,CC[C@H](C)[C@H](NC(=O)[C@H](CC(C)C)NC(=O)[C@@H](NC(=O)[C@@H](N)CCSC)[C@@H](C)O)C(=O)NCC(=O)N[C@@H](C)C(=O)N[C@@H](C)C(=O)N[C@@H](Cc1c[nH]cn1)C(=O)N[C@@H](CC(N)=O)C(=O)NCC(=O)N[C@@H](CO)C(=O)N[C@@H](C)C(=O)N[C@@H](CCC(N)=O)C(=O)N[C@@H](CC(C)C)C(=O)N[C@@H](CC(C)C)C(=O)N[C@@H](CCCN=C(N)N)C(=O)N[C@@H](CCC(N)=O)C(=O)N[C@@H](CC(C)C)C(=O)N[C@@H](CCCN=C(N)N)C(=O)NCC(=O)N[C@@H](CCC(N)=O)C(=O)N[C@@H](CC(C)C)C(=O)NCC(=O)N1CCC[C@H]1C(=O)N1CCC[C@H]1C(=O)N[C@@H](C)C(=O)N[C@@H](CO)C(=O)N[C@@H](CCCN=C(N)N)C(N)=O
7,0.12 nM,H-MTLIGAAHNGSAQLLRQLRGQAGPPGSR-NH2
8,0.2 nM,H-MTLIGAAHNGSAQLLRQLRGQLGPPGSA-NH2
9,0.13 nM,CC[C@H](C)[C@H](NC(=O)[C@H](CC(C)C)NC(=O)[C@@H](NC(=O)[C@@H](N)CCSC)[C@@H](C)O)C(=O)NCC(=O)N[C@@H](C)C(=O)N[C@@H](C)C(=O)N[C@@H](Cc1cnc[nH]1)C(=O)N[C@@H](CC(N)=O)C(=O)NCC(=O)N[C@@H](CO)C(=O)N[C@@H](C)C(=O)N[C@@H](CCC(N)=O)C(=O)N[C@@H](CC(C)C)C(=O)N[C@@H](CC(C)C)C(=O)N[C@@H](CCCN=C(N)N)C(=O)N[C@@H](CCC(N)=O)C(=O)N[C@@H](CC(C)C)C(=O)N[C@@H](CCCN=C(N)N)C(=O)N[C@H](C)C(=O)N[C@@H](CCC(N)=O)C(=O)N[C@@H](CC(C)C)C(=O)NCC(=O)N1CCC[C@H]1C(=O)N1CCC[C@H]1C(=O)NCC(=O)N[C@@H](CO)C(=O)N[C@@H](CCCN=C(N)N)C(N)=O
10,0.13 nM,H-MTLIGAAHNGSAALLRQLRGQLGPPGSR-NH2
11,0.46 nM,H-MTLIGAAHNGSAQLLRQLRGALGPPGSR-NH2
12,1.6 nM,H-MTLIGAAHNGAAQLLRQLRGQLGPPGSR-NH2
13,2.2 nM,H-MTLIGAAHNGSAQALRQLRGQLGPPGSR-NH2
14,0.26 nM,CC[C@H](C)[C@H](NC(=O)[C@H](CC(C)C)NC(=O)[C@@H](NC(=O)[C@@H](N)CCSC)[C@@H](C)O)C(=O)NCC(=O)N[C@@H](C)C(=O)N[C@@H](C)C(=O)N[C@@H](Cc1cnc[nH]1)C(=O)N[C@@H](CC(N)=O)C(=O)NCC(=O)N[C@@H](CO)C(=O)N[C@H](C)C(=O)N[C@@H](CCC(N)=O)C(=O)N[C@@H](CC(C)C)C(=O)N[C@@H](CC(C)C)C(=O)N[C@@H](CCCN=C(N)N)C(=O)N[C@@H](CCC(N)=O)C(=O)N[C@@H](CC(C)C)C(=O)N[C@@H](CCCN=C(N)N)C(=O)NCC(=O)N[C@@H](CCC(N)=O)C(=O)N[C@@H](CC(C)C)C(=O)NCC(=O)N1CCC[C@H]1C(=O)N1CCC[C@H]1C(=O)NCC(=O)N[C@@H](CO)C(=O)N[C@@H](CCCN=C(N)N)C(N)=O
15,0.26 nM,CC[C@H](C)[C@H](NC(=O)[C@H](CC(C)C)NC(=O)[C@@H](NC(=O)[C@@H](N)CCSC)[C@@H](C)O)C(=O)NCC(=O)N[C@@H](C)C(=O)N[C@@H](C)C(=O)N[C@@H](Cc1cnc[nH]1)C(=O)N[C@H](CC(N)=O)C(=O)NCC(=O)N[C@@H](CO)C(=O)N[C@@H](C)C(=O)N[C@@H](CCC(N)=O)C(=O)N[C@@H](CC(C)C)C(=O)N[C@@H](CC(C)C)C(=O)N[C@@H](CCCN=C(N)N)C(=O)N[C@@H](CCC(N)=O)C(=O)N[C@@H](CC(C)C)C(=O)N[C@@H](CCCN=C(N)N)C(=O)NCC(=O)N[C@@H](CCC(N)=O)C(=O)N[C@@H](CC(C)C)C(=O)NCC(=O)N1CCC[C@H]1C(=O)N1CCC[C@H]1C(=O)NCC(=O)N[C@@H](CO)C(=O)N[C@@H](CCCN=C(N)N)C(N)=O
16,15 nM,H-ATLIGAAHNGSAQLLRQLRGQLGPPGSR-NH2
17,0.23 nM,H-MTLIGAAHNGSAQLLRALRGQLGPPGSR-NH2
18,2.6 nM,CC[C@H](C)[C@H](NC(=O)[C@H](CC(C)C)NC(=O)[C@@H](NC(=O)[C@@H](N)CCSC)[C@@H](C)O)C(=O)NCC(=O)N[C@@H](C)C(=O)N[C@H](C)C(=O)N[C@@H](Cc1cnc[nH]1)C(=O)N[C@@H](CC(N)=O)C(=O)NCC(=O)N[C@@H](CO)C(=O)N[C@@H](C)C(=O)N[C@@H](CCC(N)=O)C(=O)N[C@@H](CC(C)C)C(=O)N[C@@H](CC(C)C)C(=O)N[C@@H](CCCN=C(N)N)C(=O)N[C@@H](CCC(N)=O)C(=O)N[C@@H](CC(C)C)C(=O)N[C@@H](CCCN=C(N)N)C(=O)NCC(=O)N[C@@H](CCC(N)=O)C(=O)N[C@@H](CC(C)C)C(=O)NCC(=O)N1CCC[C@H]1C(=O)N1CCC[C@H]1C(=O)NCC(=O)N[C@@H](CO)C(=O)N[C@@H](CCCN=C(N)N)C(N)=O
19,0.13 nM,H-MTLIGAAHNGSAQLLAQLRGQLGPPGSR-NH2
20,290 nM,CC[C@H](C)[C@H](NC(=O)[C@H](CC(C)C)NC(=O)[C@@H](NC(=O)[C@@H](N)CCSC)[C@@H](C)O)C(=O)N[C@@H](C)C(=O)N[C@@H](C)C(=O)N[C@@H](C)C(=O)N[C@@H](Cc1cnc[nH]1)C(=O)N[C@@H](CC(N)=O)C(=O)NCC(=O)N[C@@H](CO)C(=O)N[C@@H](C)C(=O)N[C@@H](CCC(N)=O)C(=O)N[C@@H](CC(C)C)C(=O)N[C@@H](CC(C)C)C(=O)N[C@@H](CCCN=C(N)N)C(=O)N[C@@H](CCC(N)=O)C(=O)N[C@@H](CC(C)C)C(=O)N[C@@H](CCCN=C(N)N)C(=O)NCC(=O)N[C@@H](CCC(N)=O)C(=O)N[C@@H](CC(C)C)C(=O)NCC(=O)N1CCC[C@H]1C(=O)N1CCC[C@H]1C(=O)NCC(=O)N[C@@H](CO)C(=O)N[C@@H](CCCN=C(N)N)C(N)=O
21,0.77 nM,H-MTLIGAAHNGSAQLLRQLAGQLGPPGSR-NH2

# Reference: ChEMBL document CHEMBL1145783, “Development of an orexin-2 receptor selective agonist, [Ala(11), D-Leu(15)]orexin-B” (Bioorg Med Chem Lett, 2003)
